Test results from patent publication US8563717B2, “Adenine derivatives” (GlaxoSmithKline LLC, priority 2008, dated 2013).
Structures can show the parent of a compound that is named as a salt. One block for each molecule: values may come before it.

Assays:
Type in all cases: cell-based
Interferon-α [1] = assay: Induction of Interferon-α using cryopreserved human PBMCs; conditions: PBMC, 24 h incubation, normalised to 1 uM resiquimod, read-out: mean pEC50 for induction of IFN-α (converted)
How it was run: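 Cryopreserved healthy-donor PBMCs at 1×10^6 cells/ml in RPMI/10% FCS with 1000 units/ml IFN-gamma, exposed 24 h at 37 °C to 11-point two-fold compound dilutions. Supernatant IFN-α quantified by MSD electrochemiluminescence immunoassay; pEC50 from 4-parameter fit, normalised to 1 uM resiquimod and DMSO.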

TNF-α = assay: Induction of TNF-α using fresh human PBMCs; conditions: PBMC, 24 hr incubation, relative to 2 μM resiquimod control, read-out: mean pEC50 for induction of TNF-α (converted)
Experimental: (§1) Assay for the Induction of Interferon-α and TNF-α Using Fresh Human Peripheral Blood Mononuclear Cells (PBMCs)
(§2) Compounds were dissolved and serially diluted in DMSO to give 100× the required concentration range using a Biomek 2000. 1 ul of test compound was transferred into 96-well tissue culture plates using a Biomek FX. Each compound was assayed in duplicate for each donor. Each plate contained a dilution series of the TLR7/8 agonist resiquimod as standard and Column 11 contained 1 μl of 200 μM resiquimod (giving a 2 μM final concentration, used to define the approximate maximal response to resiquimod).
(§3) Blood samples from two human donors were collected into sodium heparin (10 U/ml). 25 ml volumes of whole blood were overlaid onto 15 mls Histopaque in Leucosep tubes which were centrifuged at 800 g for 20 min and the band at the plasma/histopaque interface carefully removed. The collected cells were centrifuged at 2500 rpm for 10 min. and the pellet resuspended in 10 ml of media (RPMI 1640 (Low endotoxin) supplemented with 10% v/v foetal calf serum (FCS, low endotoxin) 100 U/ml penicillin G, 100 μg/ml streptomycin, 10 mM L-glutamine and 1× non-essential amino acids). A 1:20 dilution of the cells was prepared using trypan blue & the cells counted using a haemocytometer. The PBMCs were diluted to give a final concentration of 2×10^6/ml and 100 ul of this cells suspension was added to wells containing 1 μl of diluted test compound.
(§4) The cell preparations were incubated for 24 hr. (37° C., 95% air, 5% CO2) after which a sample of the supernatant was removed using the Biomek FX and assayed for both IFN-α and TNF-α using the MSD (Mesoscale Discovery) electrochemiluminescence assay platform. The IFN-α assay was carried out similarly to that described above. The TNF-α assay was carried out as per kit instructions (Cat No K111BHB).
(§5) Cytokine released was expressed as a percentage of the 2 μM resiquimod control (column 11). This percentage was plotted against compound concentration and the pEC50 for the response determined by non-linear least squares curve fitting. For the IFN-α responses generally a 4 parameter logistic model was selected. For the TNF responses where a clear maximum response was obtained (i.e. a well defined plateau in the response was observed) then a 4 parameter model was generally used. If the upper asymptote of the curve wasn't well defined then the curve fitting was generally constrained to a maximal response of 100% (i.e., to the response to 2 μM resiquimod) or to the response of the highest concentration tested if this was greater than the resiquimod response. Some curves were bell shaped for one or both cytokines and the cytokine data on the down slope of the bell shaped response (i.e. concentrations above those giving the maximal response) were generally excluded from the fit, usually with the exception of the concentration immediately above the peak response. Curve fitting thus concentrated on the up slope of the dose response curve.

Interferon-α [2] = assay: Induction of Interferon-α using fresh human PBMCs; conditions: PBMC, 24 hr incubation, relative to 2 μM resiquimod control, read-out: mean pEC50 for induction of IFN-α (converted)
Experimental: as §1, §2, §3, §4, §5

Compound: CCCCOc1nc(N)c2[nH]c(=O)n(CC3CCCN(CC)C3)c2n1 (stereo not shown) [Example 1, 6-Amino-2-butoxy-9-[(1-ethyl-3-piperidinyl)methyl]-7,9-dihydro-8H-purin-8-one]
- EC50 (Interferon-α [1]): < 1580 nM
- EC50 (TNF-α): > 1000 nM
- EC50 (Interferon-α [2]): < 100 nM

Compound: CCCCOc1nc(N)c2[nH]c(=O)n(CCC3CCCN(C4CCCCC4)C3)c2n1 (stereo not shown) [Example 38, 6-Amino-2-(butyloxy)-9-[2-(1-cyclohexyl-3-piperidinyl)ethyl]-7,9-dihydro-8H-purin-8-one]
- EC50 (Interferon-α [1]): < 1580 nM
- EC50 (TNF-α): > 1000 nM
- EC50 (Interferon-α [2]): < 1 nM

Compound: CCC[C@H](C)Oc1nc(N)c2[nH]c(=O)n(CCC3CCCN(CC)C3)c2n1 (stereo partly drawn) [Example 41, 6-Amino-9-[2-(1-ethyl-3-piperidinyl)ethyl]-2-{[(1S)-1-methylbutyl]oxy}-7,9-dihydro-8H-purin-8-one]
- EC50 (Interferon-α [1]): < 1580 nM
- EC50 (TNF-α): > 31.6 nM
- EC50 (Interferon-α [2]): < 0.316 nM

Compound: CCC[C@H](C)Oc1nc(N)c2[nH]c(=O)n(CCCCC3CCCN(CC)C3)c2n1 (stereo partly drawn) [Example 66, 6-Amino-9-[4-(1-ethyl-3-piperidinyl)butyl]-2-{[(1S)-1-methylbutyl]oxy}-7,9-dihydro-8H-purin-8-one]
- EC50 (Interferon-α [1]): < 1580 nM
- EC50 (TNF-α): > 31.6 nM
- EC50 (Interferon-α [2]): < 0.316 nM

Compound: CCC[C@H](C)Oc1nc(N)c2[nH]c(=O)n(CCC3CCN(CC)CC3)c2n1 [Example 91, 6-Amino-9-[2-(1-ethyl-4-piperidinyl)ethyl]-2-{[(1S)-1-methylbutyl]oxy}-7,9-dihydro-8H-purin-8-one]
- EC50 (Interferon-α [1]): < 1580 nM
- EC50 (TNF-α): > 31.6 nM
- EC50 (Interferon-α [2]): < 0.316 nM

Compound: CCCCOc1nc(N)c2[nH]c(=O)n(CCCC3CCN(CCC)CC3)c2n1 [Example 94, 6-Amino-2-(butyloxy)-9-[3-(1-propyl-4-piperidinyl)propyl]-7,9-dihydro-8H-purin-8-one]
- EC50 (Interferon-α [1]): < 1580 nM
- EC50 (TNF-α): > 1000 nM
- EC50 (Interferon-α [2]): < 1 nM

Compound: CCCCOc1nc(N)c2[nH]c(=O)n(CCCCCC3CCN(C(C)C)CC3)c2n1 [Example 125, 6-Amino-2-(butyloxy)-9-{5-[1-(1-methylethyl)-4-piperidinyl]pentyl}-7,9-dihydro-8H-purin-8-one]
- EC50 (Interferon-α [1]): < 1580 nM

Compound: CCCCOc1nc(N)c2[nH]c(=O)n(CCCCCC3CCN(CCCC)CC3)c2n1 [Example 126, 6-Amino-2-(butyloxy)-9-[5-(1-butyl-4-piperidinyl)pentyl]-7,9-dihydro-8H-purin-8-one]
- EC50 (Interferon-α [1]): < 1580 nM

Compound: CCCCOc1nc(N)c2[nH]c(=O)n(CCCCCC3CCN(CC(C)C)CC3)c2n1 [Example 127, 6-Amino-2-(butyloxy)-9-{5-[1-(2-methylpropyl)-4-piperidinyl]pentyl}-7,9-dihydro-8H-purin-8-one hydrochloride]
- EC50 (Interferon-α [1]): < 1580 nM

Compound: CCCCOc1nc(N)c2[nH]c(=O)n(CCCCCC3CCN(CCC(C)C)CC3)c2n1 [Example 128, 6-amino-2-(butyloxy)-9-{5-[1-(3-methylbutyl)-4-piperidinyl]pentyl}-7,9-dihydro-8H-purin-8-one]
- EC50 (Interferon-α [1]): < 1580 nM

Compound: CCCCOc1nc(N)c2[nH]c(=O)n(CCCCCC3CCN(C4CCCC4)CC3)c2n1 [Example 129, 6-Amino-2-(butyloxy)-9-[5-(1-cyclopentyl-4-piperidinyl)pentyl]-7,9-dihydro-8H-purin-8-one]
- EC50 (Interferon-α [1]): < 1580 nM

Compound: CCCCOc1nc(N)c2[nH]c(=O)n(CCCCCC3CCN(CC4CCCC4)CC3)c2n1 [Example 130, 6-Amino-2-(butyloxy)-9-{5-[1-(cyclopentylmethyl)-4-piperidinyl]pentyl}-7,9-dihydro-8H-purin-8-one hydrochloride]
- EC50 (Interferon-α [1]): < 1580 nM

Compound: CCCCOc1nc(N)c2[nH]c(=O)n(CCCCCC3CCN(CCC4CCCCC4)CC3)c2n1 [Example 131, 6-Amino-2-(butyloxy)-9-{5-[1-(2-cyclohexylethyl)-4-piperidinyl]pentyl}-7,9-dihydro-8H-purin-8-one hydrochloride]
- EC50 (Interferon-α [1]): < 1580 nM

Compound: CCCCOc1nc(N)c2[nH]c(=O)n(CCCCCCC3CCNCC3)c2n1 [Example 132, 6-Amino-2-(butyloxy)-9-[6-(4-piperidinyl)hexyl]-7,9-dihydro-8H-purin-8-one hydrochloride]
- EC50 (Interferon-α [1]): < 1580 nM

Compound: CCCCOc1nc(N)c2[nH]c(=O)n(CCCCCCC3CCN(CC)CC3)c2n1 [Example 133, 6-Amino-2-(butyloxy)-9-[6-(1-ethyl-4-piperidinyl)hexyl]-7,9-dihydro-8H-purin-8-one]
- EC50 (Interferon-α [1]): < 1580 nM

Compound: CCCCOc1nc(N)c2[nH]c(=O)n(CCCCCCC3CCN(C(C)C)CC3)c2n1 [Example 134, 6-Amino-2-(butyloxy)-9-{6-[1-(1-methylethyl)-4-piperidinyl]hexyl}-7,9-dihydro-8H-purin-8-one]
- EC50 (Interferon-α [1]): < 1580 nM

More lines, main results first:

- EC50 (TNF-α): > 1000 nM
- EC50 (Interferon-α [2]): < 100 nM
Compound: CCCCOc1nc(N)c2[nH]c(=O)n(CC3CCN(CC)CC3)c2n1 [Example 7]
- EC50 (Interferon-α [1]): < 1580 nM

- EC50 (TNF-α): > 31.6 nM
- EC50 (Interferon-α [2]): < 0.316 nM
Compound: CCCCOc1nc(N)c2[nH]c(=O)n(CCCC3CCCCN3CC(C)C)c2n1 (stereo not shown) [Example 18, 6-Amino-2-(butyloxy)-9-{3-[1-(2-methylpropyl)-2-piperidinyl]propyl}-7,9-dihydro-8H-purin-8-one]
- EC50 (Interferon-α [1]): < 1580 nM

- EC50 (TNF-α): > 1000 nM
- EC50 (Interferon-α [2]): < 100 nM
Compound: CCCCOc1nc(N)c2[nH]c(=O)n(CC3CCCN(CCC)C3)c2n1 (stereo not shown) [Example 23, 6-Amino-2-(butyloxy)-9-[(1-propyl-3-piperidinyl)methyl]-7,9-dihydro-8H-purin-8-one]
- EC50 (Interferon-α [1]): < 1580 nM

- EC50 (TNF-α): > 1000 nM
- EC50 (Interferon-α [2]): < 100 nM
Compound: CCCCOc1nc(N)c2[nH]c(=O)n(CC3CCCN(C(C)C)C3)c2n1 (stereo not shown) [Example 24, 6-Amino-2-(butyloxy)-9-{[1-(1-methylethyl)-3-piperidinyl]methyl}-7,9-dihydro-8H-purin-8-one]
- EC50 (Interferon-α [1]): < 1580 nM

- EC50 (TNF-α): > 1000 nM
- EC50 (Interferon-α [2]): < 100 nM
Compound: CCCCOc1nc(N)c2[nH]c(=O)n(CCC3CCCNC3)c2n1 (stereo not shown) [Example 29, 6-amino-2-(butyloxy)-9-[2-(3-piperidinyl)ethyl]-7,9-dihydro-8H-purin-8-one]
- EC50 (Interferon-α [1]): < 1580 nM

- EC50 (TNF-α): > 1000 nM
- EC50 (Interferon-α [2]): < 10 nM
Compound: CCCCOc1nc(N)c2[nH]c(=O)n(CCC3CCCN(CC)C3)c2n1 (stereo not shown) [Example 30, 6-Amino-2-(butyloxy)-9-[2-(1-ethyl-3-piperidinyl)ethyl]-7,9-dihydro-8H-purin-8-one]
- EC50 (Interferon-α [1]): < 1580 nM

- EC50 (TNF-α): > 1000 nM
- EC50 (Interferon-α [2]): < 1 nM
Compound: CCCCOc1nc(N)c2[nH]c(=O)n(CCC3CCCN(C(C)C)C3)c2n1 (stereo not shown) [Example 32, 6-Amino-2-(butyloxy)-9-{2-[1-(1-methylethyl)-3-piperidinyl]ethyl}-7,9-dihydro-8H-purin-8-one]
- EC50 (Interferon-α [1]): < 1580 nM

- EC50 (TNF-α): > 31.6 nM
- EC50 (Interferon-α [2]): < 0.316 nM
Compound: CCC[C@H](C)Oc1nc(N)c2[nH]c(=O)n(CCC3CCCN(C(C)C)C3)c2n1 (stereo partly drawn) [Example 42, 6-Amino-2-{[(1S)-1-methylbutyl]oxy}-9-{2-[1-(1-methylethyl)-3-piperidinyl]ethyl}-7,9-dihydro-8H-purin-8-one]
- EC50 (Interferon-α [1]): < 1580 nM

- EC50 (TNF-α): > 1000 nM
- EC50 (Interferon-α [2]): < 10 nM
Compound: CCCCOc1nc(N)c2[nH]c(=O)n(CCCCCC3CCCN(C(C)C)C3)c2n1 (stereo not shown) [Example 69, 6-Amino-2-(butyloxy)-9-{5-[1-(1-methylethyl)-3-piperidinyl]pentyl}-7,9-dihydro-8H-purin-8-one]
- EC50 (Interferon-α [1]): < 1580 nM

- EC50 (TNF-α): > 1000 nM
- EC50 (Interferon-α [2]): < 100 nM
Compound: CCCCOc1nc(N)c2[nH]c(=O)n(CCC3CCN(C(C)C)CC3)c2n1 [Example 81, 6-Amino-2-(butyloxy)-9-{2-[1-(1-methylethyl)-4-piperidinyl]ethyl}-7,9-dihydro-8H-purin-8-one]
- EC50 (Interferon-α [1]): < 1580 nM

- EC50 (TNF-α): > 1000 nM
- EC50 (Interferon-α [2]): < 10 nM
Compound: CCCCOc1nc(N)c2[nH]c(=O)n(CCCC3CCN(C(C)C)CC3)c2n1 [Example 95, 6-Amino-2-(butyloxy)-9-{3-[1-(1-methylethyl)-4-piperidinyl]propyl}-7,9-dihydro-8H-purin-8-one]
- EC50 (Interferon-α [1]): < 1580 nM
